pIC50: −log10 of the molar value. Where two headings read alike, the source gives them in different places.
Legend:
Format in all cases: biochemical
[1] = target: T1, Cathepsine K (Homo sapiens, UniProt P43235); assay: Inhibition of Cathepsine K (fluorogenic substrate Z-Val-arg-AMC); conditions: substrate Z-Val-arg-AMC 20 µM, enzyme 5 ng/ml, pH 5.5, 2 h at room temperature; concentration range 50 to 0.5 µM; read-out: IC50 µM Cathepsin K
T1 sequence (P43235 115-329): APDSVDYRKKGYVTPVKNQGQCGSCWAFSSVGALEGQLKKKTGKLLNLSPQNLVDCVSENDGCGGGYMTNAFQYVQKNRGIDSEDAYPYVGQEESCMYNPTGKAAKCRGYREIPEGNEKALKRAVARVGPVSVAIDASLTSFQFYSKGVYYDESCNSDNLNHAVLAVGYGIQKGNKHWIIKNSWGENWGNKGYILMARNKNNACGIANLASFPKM
Protocol: Etude de l'inhibition de Cathepsine K :
(§1) Les produits à tester (10 mM) sont dilués à 1 mM en DMSO et repartis dans des plaques 96 puits polystyrène Nunc à raison de 2 µl par puits. La colonne 12 de la plaque est réservée pour les contrôles et reçoit donc […] de DMSO (sans produits) par puits. Les plaques sont conservées à -80°C et décongelées le jour de l'expérience.
(§2) Les produits sont dilués à 50 µM par addition de 38 µl de tampon réaction : acétate de sodium 100 mM, EDTA 5 mM, DTT 1 mM pH 5,5. L'addition ainsi que tous les pipetages suivant sont réalisés par un pipeteur 96 cônes CybiWell. Après mélange des solutions, chaque produit est transféré dans 2 puits (duplicates) d'une plaque 384 puits noire Greiner à raison de 10 µl par puits. On peut donc tester 2 plaques 96 dans une plaque 384.
(§3) Une solution de substrat à 50 µM, Z-Val-arg-AMC (Calbiochem), est préparée dans le tampon réaction . Le substrat, est ensuite distribué dans tous les puits de la plaque 384 (20 µl par puits).
(§4) Une solution de Cathepsine K à 12,5 ng/ml est préparée dans le tampon réaction et distribuée dans tous les puits de la plaque 384 (20 µl par puits) exceptés les 16 puits servant de contrôles 100 % d'inhibition (colonne 23 et 24, lignes I à P) qui recevront 20 µl de tampon sans enzyme. Les contrôles […] d'inhibition sont réalisés dans les colonnes 23 et 24, lignes A à H qui ne contiennent pas de produits.
(§5) Les plaques sont ensuite incubées 2H à température ambiante, puis lues sur Fluoroskan (Labsystems) : excitation 390 nm; émission 460 nm
(§6) Les concentrations finales de chacun des réactifs sont : Produits 10 µM, Substrat 20 µM, enzyme 5 ng/ml.
(§7) Les % d'inhibition pour chacun des produits sont calculés en utilisant les points à 0 et 100 % d'inhibition de chaque plaque comme références. Les produits présentant une inhibition significative sont ensuite retestés sur une gamme de concentration allant de 50 à 0,5µM pour déterminer une IC50.

[2] = target: T2, Cathepsine B (Homo sapiens, UniProt P07858); assay: Inhibition of Cathepsine B (fluorogenic substrate Z-arg-arg-AMC); conditions: substrate Z-arg-arg-AMC 20 µM, enzyme 16 ng/ml, 1 h at room temperature; read-out: IC50 µM Cathepsin B
T2 construct: purchased Calbiochem
Protocol: as §1, §2, §3, §4, §5, §6, §7
Etude de l'inhibition de Cathepsine B: […]

[3] = target: T3, Papain (Carica papaya, UniProt P00784); assay: Inhibition of Papain (protocol as for Cathepsine K)
T3 construct: purchased Sigma
T3 sequence (P00784 134-345): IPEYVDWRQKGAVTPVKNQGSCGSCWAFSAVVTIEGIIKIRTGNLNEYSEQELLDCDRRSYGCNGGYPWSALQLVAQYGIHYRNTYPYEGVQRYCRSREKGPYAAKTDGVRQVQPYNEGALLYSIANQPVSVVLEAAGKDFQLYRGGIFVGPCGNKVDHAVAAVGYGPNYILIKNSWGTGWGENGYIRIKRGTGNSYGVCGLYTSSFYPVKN
Protocol: as §1, §2, §3, §4, §5, §6, §7
Etude de l'inhibition de Papain:
Protocole identique à celui de Cathepsine K exceptés : • Papain (Sigma), solution à 50 ng/ml, concentration finale 20 ng/ml • Incubation 30 min à température ambiante

C=CCOC(=O)CC[C@H](NC(=O)[C@@H]1CCCN2C(=O)CC[C@H](NC(=O)NC3CCCCC3)C(=O)N12)C(=O)COC(=O)c1c(Cl)cccc1Cl [Exemple 122, (4S) 6-[(2,6-dichlorobenzoyl)oxy] -4-[[[(1S,9S)-9-[[(cyclohexylamino)carbonyl]amino]-octahydro-6,10-dioxo-6H-pyridazino[1,2-a][1,2]diazepine-1-yl]carbonyl]amino]-5-oxo-Hexanoatede (2-propenyle)]
IC50 [1]: 18 µM
IC50 [2]: 0.7 µM

(4S) 6-diazo-4-[[[(1S,9S)-9-[[[[2-(p-2-yl)-ethyl]amino]carbonyl]amino]-octahydro-6,10-dioxo-6H-pyridazino[1,2-a][1,2]diazepine-1-yl]carbonyl]amino]-5-oxo-Hexanoate de (2-propenyle) [Exemple 44]
IC50 [1]: 2 µM

CC(C)C[C@H](NC(=O)[C@@H]1CCCN2C(=O)CC[C@H](NS(=O)(=O)c3ccc(C(F)(F)F)cc3)C(=O)N12)C(=O)C=[N+]=[N-] [Exemple 347, 9-[(9S)-[[4-(trifluoromethyl)phenyl]sulfonyl]amino]-N-((3S)-1-diazo-5-methyl-2-oxo-3-hexyl)-octahydro-6,10-dioxo-6H-(1S)-pyridazino[1,2-a][1,2]diazepine-1-carboxamide]
IC50 [1]: 12 µM

C=CCOC(=O)CC[C@H](NC(=O)[C@@H]1CCCN2C(=O)CC[C@H](NC(=O)NCCc3cccs3)C(=O)N12)C(=O)COC(=O)c1c(Cl)cccc1Cl [Exemple 141, (4S) 6-[(2,6-dichlorobenzoyl)oxy]-4-[[[(1S,9S)-9-[[[[2-(thien-2-yl)-ethyl]amino]carbonyl]amino]-octahydro-6,10-dioxo-6H-pyridazino[1,2-a][1,2]diazepine-1-yl]carbonyl]amino]-5-oxo-Hexanoatede (2-propenyle)]
IC50 [1]: 9 µM
IC50 [2]: 0.7 µM

C=CCOC(=O)CC[C@H](NC(=O)[C@@H]1CCCN2C(=O)CC[C@H](NC(=O)NCCc3cccs3)C(=O)N12)C(=O)CSc1nnnn1-c1ccccc1 [Exemple 138, (4S) 6-[(1-phenyl-1H-tetrazol-5-yl)thio]-4-[[[(1S,9S)-9-[[[[2-(thien-2-yl)-ethyl]amino]carbonyl]amino]-octahydro-6,10-dioxo-6H-pyridazino[1,2-a][1,2]diazepine-1-yl]carbonyl]amino]-5-oxo-Hexanoatede (2-propenyle)]
IC50 ([3]; enzyme 20 ng/ml, 30 min at room temperature; read-out: IC50 µM Papain): 8 µM

COC(=O)CCCC(=O)OCC(=O)[C@H](Cc1ccccc1)NC(=O)[C@@H]1CCCN2C(=O)CC[C@H](NC(=O)Nc3ccc(Oc4ccccc4)cc3)C(=O)N12 [Exemple 217]
IC50 ([3]; read-out: IC50 µM Papain; enzyme 20 ng/ml, 30 min at room temperature): 7 µM

C=CCOC(=O)CC[C@H](NC(=O)[C@@H]1CCCN2C(=O)CC[C@H](NS(C)(=O)=O)C(=O)N12)C(=O)COC(=O)c1c(Cl)cccc1Cl [Exemple 150, (4S) 6-[(2,6-dichlorobenzoyl)oxy]-4-[[[(1S,9S)-9-[(methylsulfonyl)amino]-octahydro-6,10-dioxo-6H-pyridazino[1,2-a] [1,2]diazepine-1-yl]carbonyl]amino]-5-oxo-Hexanoatede (2-propenyle)]
IC50 [1]: 6 µM
IC50 [2]: 0.6 µM

CC(C)(C)Oc1ccc(C[C@H](NC(=O)[C@@H]2CCCN3C(=O)CC[C@H](NC(=O)Nc4ccc(Oc5ccccc5)cc4)C(=O)N23)C(=O)C=[N+]=[N-])cc1 [Exemple 54, 9-[(9S)-[[(4-phenoxyphenyl)amino]carbonyl]amino]-N-[(2S)-4-diazo-1-[4-[(1,1-dimethyl)ethoxy]phenyl]-3-oxo-2-butyl]-6H-(1S)-pyridazino[1,2-a][1,2]diazepine-1-carboxamide]
pIC50 [3]: 4.82
